{"source": "paper PMC12226733", "about": "“Evolution of iGluR ligand specificity, polyamine regulation, and ion selectivity inferred from a placozoan epsilon receptor” (Communications Biology, 2025)", "key": {"GluE1αA S642Q": {"target": "T1, GluE1αA S642Q (Trichoplax adhaerens, UniProt B3SAW0, S167Q)", "T1 sequence (B3SAW0 1-341 S167Q)": "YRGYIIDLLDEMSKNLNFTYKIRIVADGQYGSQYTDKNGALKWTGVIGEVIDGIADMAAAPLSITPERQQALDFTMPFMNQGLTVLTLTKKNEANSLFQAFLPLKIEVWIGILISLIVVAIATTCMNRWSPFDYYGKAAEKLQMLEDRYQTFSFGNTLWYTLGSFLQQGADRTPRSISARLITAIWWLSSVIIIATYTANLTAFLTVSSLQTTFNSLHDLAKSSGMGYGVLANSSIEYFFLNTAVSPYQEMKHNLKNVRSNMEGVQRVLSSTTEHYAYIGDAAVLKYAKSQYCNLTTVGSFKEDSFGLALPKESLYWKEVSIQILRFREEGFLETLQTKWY", "assay_type": "cell-based", "settings": "[…]; for normalized conductance (G-V, Figure 5g), Avg: Na vs Na; for I-V current, Na vs Na, Avg of recordings: Figure 5b"}, "GluE1αA S642Q plus D646A": {"test_system": "GluE1αA S642Q plus D646A", "assay_type": "cell-based, Trichoplax adhaerens", "settings": "[…]; for normalized conductance (G-V, Figure 5g), Avg: Na vs Na; for I-V current, Na vs Na, Avg of recordings: Figure 5b"}, "[1]": {"target": "T2, human GluA2 receptor (wildtype) (Homo sapiens, UniProt P42262)", "T2 construct": "host or cells: CHO-K1", "T2 sequence (P42262 25-883)": "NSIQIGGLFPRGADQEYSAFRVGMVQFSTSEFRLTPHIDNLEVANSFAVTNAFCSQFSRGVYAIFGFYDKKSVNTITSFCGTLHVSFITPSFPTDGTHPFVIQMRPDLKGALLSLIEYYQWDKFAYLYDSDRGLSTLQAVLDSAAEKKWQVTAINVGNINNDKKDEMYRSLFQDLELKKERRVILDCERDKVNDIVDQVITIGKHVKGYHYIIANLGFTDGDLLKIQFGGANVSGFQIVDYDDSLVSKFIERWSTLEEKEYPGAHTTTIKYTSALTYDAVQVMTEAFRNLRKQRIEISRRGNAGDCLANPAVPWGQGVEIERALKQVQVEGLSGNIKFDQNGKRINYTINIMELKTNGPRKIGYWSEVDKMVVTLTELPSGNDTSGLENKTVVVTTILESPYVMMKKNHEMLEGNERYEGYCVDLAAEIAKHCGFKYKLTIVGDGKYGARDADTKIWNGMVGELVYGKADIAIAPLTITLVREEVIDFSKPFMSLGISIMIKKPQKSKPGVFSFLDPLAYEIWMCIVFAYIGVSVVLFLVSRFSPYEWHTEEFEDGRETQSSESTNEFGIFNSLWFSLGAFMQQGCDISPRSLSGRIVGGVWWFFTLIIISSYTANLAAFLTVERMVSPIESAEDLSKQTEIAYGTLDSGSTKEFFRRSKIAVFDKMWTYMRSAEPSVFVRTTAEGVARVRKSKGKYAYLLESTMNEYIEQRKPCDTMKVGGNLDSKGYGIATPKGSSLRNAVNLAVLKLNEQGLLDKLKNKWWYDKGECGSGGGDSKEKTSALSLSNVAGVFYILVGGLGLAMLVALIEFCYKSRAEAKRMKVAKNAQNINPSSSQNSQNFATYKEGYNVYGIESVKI", "assay_type": "cell-based", "settings": "for normalized conductance (G-V, Figure 5g), Avg: Na vs Na"}, "GluE1αA D646A variant": {"test_system": "GluE1αA D646A variant", "excerpt": "(§1) The cDNA of the T. adhaerens GluE1αA receptor was cloned into the mammalian expression vector pIRES2-EGFP, using a 5’ nested primer that inserted a mammalian consensus Kozak sequence of […] (Supplementary Table 5). Several mutants/variants of this receptor where also prepared via site directed mutagenesis using standard procedures and primers listed in Supplementary Table 5. For electrophysiological comparisons, we commissioned GenScript (USA) to synthesize the cDNA of the human GluA2 […] receptor (NCBI accession number NP_001077088.2), which was cloned into the pIRES2-EGFP vector with a Kozak sequence flanking the start codon and restriction enzymes SalI and BamHI at the 5’ and 3’ ends of the cDNA, respectively. Receptor cDNAs in the various pIRES2 constructs were transfected into Chinese Hamster Ovary-K1 (CHO-K1; Sigma) cells cultured in Dulbecco’s Modified Eagle Medium Nutrient Mixture F-12 (DMEM/F12) supplemented with 10% Fetal Bovine Serum (FBS) and 1% penicillin-streptomycin at 37°C. Transfections were done with 2 μg of plasmid vector using the transfecting reagent PolyJet^TM (SignaGen Laboratories, USA) according to the manufacturer’s instructions and plated onto glass coverslips in 35 mm dishes the next day. Transfected cells were incubated at 28°C for 2 to 4 days, then coverslips were transferred to a new 60 mm dish with 5 mL of external recording solution. […] Agonists and pharmacological compounds used in this study were dissolved in corresponding external solutions. […] Patch pipettes were pulled using a P-1000 micropipette puller (Sutter, USA), from thick-walled borosilicate tubing (1.5 and 0.86 outer and inner diameter, respectively), to a resistance of between 1 and 6 megaohms."}, "[2]": {"target": "T3, GluE1αA wildtype receptor (Trichoplax adhaerens, UniProt B3SAW0)", "T3 sequence (B3SAW0 1-341)": "T1 sequence (B3SAW0 1-341 S167Q) with Q167S", "settings": "wt", "excerpt": "as §1"}}, "note": "Substitutions are numbered along the chain they refer to. Where two headings read alike, the source gives them in different places.", "data": [{"smiles": "[Na+]", "note": "[Na]", "values": [{"measurement": "normalized conductance (G-V, Figure 5g), Avg", "setting": "GluE1αA S642Q; Vm 0.00", "result": 0.20}, {"measurement": "normalized conductance (G-V, Figure 5g), Avg", "setting": "GluE1αA S642Q; Vm 20.00", "result": 0.25}, {"measurement": "normalized conductance (G-V, Figure 5g), Avg", "setting": "GluE1αA S642Q; Vm 40.00", "result": 0.52}, {"measurement": "normalized conductance (G-V, Figure 5g), Avg", "setting": "GluE1αA S642Q; Vm 60.00", "result": 0.72}, {"measurement": "normalized conductance (G-V, Figure 5g), Avg", "setting": "GluE1αA S642Q; Vm 80.00", "result": 0.79}, {"measurement": "normalized conductance (G-V, Figure 5g), Avg", "setting": "GluE1αA S642Q; Vm -20.00", "result": 0.51}, {"measurement": "normalized conductance (G-V, Figure 5g), Avg", "setting": "GluE1αA S642Q; Vm -40.00", "result": 0.84}, {"measurement": "normalized conductance (G-V, Figure 5g), Avg", "setting": "GluE1αA S642Q; Vm -60.00", "result": 0.93}, {"measurement": "normalized conductance (G-V, Figure 5g), Avg", "setting": "GluE1αA S642Q; Vm -80.00", "result": 1.00}, {"measurement": "I-V current, Na vs Na, Avg of recordings", "setting": "GluE1αA S642Q; Vm 0.00", "result": 0.0017}, {"measurement": "I-V current, Na vs Na, Avg of recordings", "setting": "GluE1αA S642Q; Vm 20.00", "result": 0.0327}, {"measurement": "I-V current, Na vs Na, Avg of recordings", "setting": "GluE1αA S642Q; Vm 40.00", "result": 0.13}, {"measurement": "I-V current, Na vs Na, Avg of recordings", "setting": "GluE1αA S642Q; Vm 60.00", "result": 0.30}, {"measurement": "I-V current, Na vs Na, Avg of recordings", "setting": "GluE1αA S642Q; Vm 80.00", "result": 0.51}, {"measurement": "I-V current, Na vs Na, Avg of recordings", "setting": "GluE1αA S642Q; Vm -20.00", "result": -0.07}, {"measurement": "I-V current, Na vs Na, Avg of recordings", "setting": "GluE1αA S642Q; Vm -40.00", "result": -0.26}, {"measurement": "I-V current, Na vs Na, Avg of recordings", "setting": "GluE1αA S642Q; Vm -60.00", "result": -0.50}, {"measurement": "I-V current, Na vs Na, Avg of recordings", "setting": "GluE1αA S642Q; Vm -80.00", "result": -0.73}, {"measurement": "normalized conductance (G-V, Figure 5g), Avg", "setting": "GluE1αA S642Q plus D646A; Vm 0.00", "result": 0.77}, {"measurement": "normalized conductance (G-V, Figure 5g), Avg", "setting": "GluE1αA S642Q plus D646A; Vm 20.00", "result": 0.75}, {"measurement": "normalized conductance (G-V, Figure 5g), Avg", "setting": "GluE1αA S642Q plus D646A; Vm 40.00", "result": 0.71}, {"measurement": "normalized conductance (G-V, Figure 5g), Avg", "setting": "GluE1αA S642Q plus D646A; Vm 60.00", "result": 0.70}, {"measurement": "normalized conductance (G-V, Figure 5g), Avg", "setting": "GluE1αA S642Q plus D646A; Vm 80.00", "result": 0.74}, {"measurement": "normalized conductance (G-V, Figure 5g), Avg", "setting": "GluE1αA S642Q plus D646A; Vm -20.00", "result": 0.79}, {"measurement": "normalized conductance (G-V, Figure 5g), Avg", "setting": "GluE1αA S642Q plus D646A; Vm -40.00", "result": 0.87}, {"measurement": "normalized conductance (G-V, Figure 5g), Avg", "setting": "GluE1αA S642Q plus D646A; Vm -60.00", "result": 0.95}, {"measurement": "normalized conductance (G-V, Figure 5g), Avg", "setting": "GluE1αA S642Q plus D646A; Vm -80.00", "result": 1.00}, {"measurement": "I-V current, Na vs Na, Avg of recordings", "setting": "GluE1αA S642Q plus D646A; Vm 0.00", "result": -0.02}, {"measurement": "I-V current, Na vs Na, Avg of recordings", "setting": "GluE1αA S642Q plus D646A; Vm 20.00", "result": 0.15}, {"measurement": "I-V current, Na vs Na, Avg of recordings", "setting": "GluE1αA S642Q plus D646A; Vm 40.00", "result": 0.31}, {"measurement": "I-V current, Na vs Na, Avg of recordings", "setting": "GluE1αA S642Q plus D646A; Vm 60.00", "result": 0.47}, {"measurement": "I-V current, Na vs Na, Avg of recordings", "setting": "GluE1αA S642Q plus D646A; Vm 80.00", "result": 0.63}, {"measurement": "I-V current, Na vs Na, Avg of recordings", "setting": "GluE1αA S642Q plus D646A; Vm -20.00", "result": -0.18}, {"measurement": "I-V current, Na vs Na, Avg of recordings", "setting": "GluE1αA S642Q plus D646A; Vm -40.00", "result": -0.37}, {"measurement": "I-V current, Na vs Na, Avg of recordings", "setting": "GluE1αA S642Q plus D646A; Vm -60.00", "result": -0.57}, {"measurement": "I-V current, Na vs Na, Avg of recordings", "setting": "GluE1αA S642Q plus D646A; Vm -80.00", "result": -0.76}, {"measurement": "normalized conductance (G-V, Figure 5g), Avg", "setting": "[1]; Vm 0.00", "result": 0.0219}, {"measurement": "normalized conductance (G-V, Figure 5g), Avg", "setting": "[1]; Vm 20.00", "result": 0.0142}, {"measurement": "normalized conductance (G-V, Figure 5g), Avg", "setting": "[1]; Vm 40.00", "result": 0.0218}, {"measurement": "normalized conductance (G-V, Figure 5g), Avg", "setting": "[1]; Vm 60.00", "result": 0.11}, {"measurement": "normalized conductance (G-V, Figure 5g), Avg", "setting": "[1]; Vm 80.00", "result": 0.29}, {"measurement": "normalized conductance (G-V, Figure 5g), Avg", "setting": "[1]; Vm -20.00", "result": 0.10}, {"measurement": "normalized conductance (G-V, Figure 5g), Avg", "setting": "[1]; Vm -40.00", "result": 0.41}, {"measurement": "normalized conductance (G-V, Figure 5g), Avg", "setting": "[1]; Vm -60.00", "result": 0.86}, {"measurement": "normalized conductance (G-V, Figure 5g), Avg", "setting": "[1]; Vm -80.00", "result": 1.00}, {"measurement": "I-V current, Na vs Na, Avg of recordings", "setting": "[1]; Vm 0.00, Figure 5b", "result": -0.00449}, {"measurement": "I-V current, Na vs Na, Avg of recordings", "setting": "[1]; Vm 20.00, Figure 5b", "result": 0.00351}, {"measurement": "I-V current, Na vs Na, Avg of recordings", "setting": "[1]; Vm 40.00, Figure 5b", "result": 0.00517}, {"measurement": "I-V current, Na vs Na, Avg of recordings", "setting": "[1]; Vm 60.00, Figure 5b", "result": 0.02}, {"measurement": "I-V current, Na vs Na, Avg of recordings", "setting": "[1]; Vm 80.00, Figure 5b", "result": 0.08}, {"measurement": "I-V current, Na vs Na, Avg of recordings", "setting": "[1]; Vm -20.00, Figure 5b", "result": -0.0114}, {"measurement": "I-V current, Na vs Na, Avg of recordings", "setting": "[1]; Vm -40.00, Figure 5b", "result": -0.0751}, {"measurement": "I-V current, Na vs Na, Avg of recordings", "setting": "[1]; Vm -60.00, Figure 5b", "result": -0.30}, {"measurement": "I-V current, Na vs Na, Avg of recordings", "setting": "[1]; Vm -80.00, Figure 5b", "result": -0.69}]}, {"smiles": "NCCCNCCCCNCCCN", "note": "[spermine]", "values": [{"measurement": "reduction in peak inward current (percent block)", "setting": "GluE1αA D646A variant; 200 µM extracellular spermine", "result": "14.0 ± 1.1", "unit": "%"}, {"measurement": "reduction in peak inward current", "setting": "GluE1αA D646A variant; 1000 µM extracellular spermine", "result": "40.2 ± 3.4", "unit": "%"}, {"measurement": "normalized current elicited by 3 mM glycine with co-applied spermine, Avg", "setting": "GluE1αA D646A variant; spermine 200 µM extracellular", "result": 0.8603}, {"measurement": "normalized current elicited by 3 mM glycine with co-applied spermine, Avg", "setting": "GluE1αA D646A variant; spermine 1000 µM extracellular", "result": 0.5979}, {"measurement": "normalized current elicited by 3 mM glycine with co-applied spermine, Avg", "setting": "[2]; spermine 200 µM extracellular", "result": 0.8673}, {"measurement": "normalized current elicited by 3 mM glycine with co-applied spermine, Avg", "setting": "[2]; spermine 1000 µM extracellular", "result": 0.8213}]}]}
